Data from publication PMC5870190, “A three-in-one-bullet for oesophageal cancer: replication fork collapse, spindle attachment failure and enhanced radiosensitivity generated by a ruthenium(II) metallo-intercalator” (Chemical Science, 2017).

Tests used:
[1] = tested on: OE33 human oesophageal adenocarcinoma; assay: MTT assay, OE33 cells; type: cell-based
Method: MTT assay. OE21, FLO-1 or hSAEC1-KT cells were seeded in 96 well plates at 20,000 cells/well (for 24 h treatment) or 10,000 cells/well (for 72 h treatment) and allowed to adhere for 24 h before treatment. OE33 cells were seeded in 48 well plates at 40,000 cells/well (24 h treatment) or 20,000 cells/well (72 h treatment). Cancer cell lines were treated with chemicals dissolved in RPMI media for consistency. After incubation, 0.5 mg/ml MTT (thiazolyl blue tetrazolium bromide) dissolved in serum-free medium was added for 60 minutes and the formazan product eluted using acidified isopropanol.
(§1) The absorbance at 540 nm was quantified by plate reader (reference wavelength 650 nm). The metabolic activity of the cell population was determined as a percentage of a negative (solvent) control. […]
(§2) For the determination of mutation induction, from the untreated and each treated condition, 2x10^5 cells were plated in 10 x 100 mm dishes in selective media (regular media

[2] = tested on: V79 Chinese hamster cells; assay: HPRT forward mutation assay; type: cell-based
Method: propidium iodide (PI) is standard to quantify DNA content using flow cytometry, bleed-through of the MLCT emission of […]
To remove these artefacts, a higher concentration of Ru1 (100 µM, 10 mins) was additionally applied post-incubation and fixation to treated and control samples, acting as a substitute DNA dye instead of PI. After staining, cells were centrifuged (1000 rpm, 5 mins) and re-suspended in PBS.
Samples were analysed using a Biosciences LSRII Flow Cytometer using the FL2 channel to collect (recognisable) cell-cycle […]
profiles. […] A minimum of
10,000 cells were counted for each sample and data were processed using FloJo software.
Microscopy and immunofluorescence. Cells were seeded on ibidi 35 mm µ-dishes (Thistle Scientific), allowed to adhere for 24 h and treated as stated in the main text. Cell media was removed, cells washed with PBS and fixed with formaldehyde (4%, 10 mins). Cells were permeablised with Triton (0.5% in PBS, 5 mins) and washed with PBS. […]
emission was collected from 500-530 nm to prevent spectral overlap with Ru1 emission. γH2AX foci were counted using […]
as §1
Cell cultures were treated as stated, media containing detached/dead cells were removed and retained, and adherent collected by Trypsin and centrifugation. […] Trypan Blue negative and Trypan Blue positive cells were counted by haemocytometer. A minimum of 200 cells were counted for each sample.
HPRT (hypoxanthine-guanine phosphoribosyl transferase) forward mutation assay. […] The cultures were washed with PBS, cells were detached by trypsin (0.05%) and cell number was determined. […] After 7 days' incubation, the resulting colonies were stained with methylene blue and those containing 100 or more cells were counted. Cloning efficiency was determined and is usually expressed in percent relative to the […]

[3] = tested on: OE21 cells; assay: Trypan Blue exclusion assay; type: cell-based, human; conditions: OE21, Ru1 21 μM
Method: Trypan Blue exclusion assay. OE21 cells were seeded in 6 well plates at 40,000 cells/well and allowed to adhere for 24 h.
Cell cultures were treated as stated, media containing detached/dead cells were removed and retained, and adherent collected by Trypsin and centrifugation. Adherent and detached cells for each sample were combined, concentrated via centrifugation and re-suspended in 0.5 ml PBS containing 0.04% Trypan Blue solution. Trypan Blue negative and Trypan Blue positive cells were counted by haemocytometer. A minimum of 200 cells were counted for each sample. […]
as §2

[4] = tested on: OE33 cells; assay: Clonogenic survival assay with IR, OE33; type: cell-based, human; conditions: Ru1 2 μM or Cis 500 nM for 24 h before IR
Method: Clonogenic survival assay. OE21, OE33 or FLO1 cells were treated with 2 µM Ru1 for 24 h before irradiation with 0-8 Gy using a 137Cs γ-irradiator (IBL637, CIS Bio Int.; dose rate = 0.809 Gy min−1). 1 h after irradiation, cells were detached using Trypsin and re-seeded in 6 well plates at a density of 300 – 20,000 cells/well in triplicate in an incrementally greater number of cells with increasing IR dose to ensure adequate colony formation. Cells were incubated for 7–14 days after re-seeding to allow colony formation before being fixed with 10% methanol, 10% acetic acid and stained with 0.4% methylene blue. OE33 cells required an additional formaldehyde fixation (4% in PBS, 5 mins) step before the addition of methylene blue solution or colony detachment occurred. Colonies containing 50 cells or greater were counted using a Gelcount instrument and accompanying software (Oxford Optronix). Plating efficiencies were determined for each treatment condition and normalised to an untreated control to provide the surviving fraction (S. F.). S.F. versus radiation dose curves were plotted in GraphPad Prism and fit using a second order polynomial function (R2 values > 0.99). Dose modifying factors (DMF) at a SF=0.1 were calculated using the equation: Dose modifying factor (DMF) = IR dose to give S.F. 0.1/IR dose plus compound to give S.F.0.1. […]

Substance: [Ru(phen)2(tpphz)]^2+ [Ru1]
- IC50 ([1]; OE33, 24 h constant exposure): 44.5 ± 3.5 µM
- IC50 ([1]; OE33, 72 h constant exposure): 27 ± 2.8 µM
- M.F. (mutation frequency) ([2]; 2 μM of each complex for 24 h): 36.7 ± 7.3 6-TG resistant mutations per 1 × 10^5 viable cells
- Rel. M.F. (ratio of induced to spontaneous mutations) ([2]; 2 μM of each complex for 24 h): 5.8
- mutation rate lower than for cisplatin ([2]; HPRT assay, V79, 2 μM, 24 h): two-fold
- necrotic cell death (Trypan blue staining) [3]: ~20%
- S.F. ([4]; OE33, IR 0 Gy): 0.956
- S.F. ([4]; OE33, IR 2 Gy): 0.447
- S.F. ([4]; OE33, IR 4 Gy): 0.083
- S.F. ([4]; OE33, IR 6 Gy): 0.014
- S.F. ([4]; OE33, IR 8 Gy): 0.003
